For this assay, the system named is seizures in patients with TSC. Put plainly: Mean total seizures over time in TSC patients after administration of CBD (FIG. 2). Type of assay: in vivo, human. The settings on record: starting dose 5 mg/kg/day, 2 week titration period. As to the method: Patients with TSC were administered a highly purified extract of cannabidiol (CBD) obtained from a cannabis plant described herein. Similar to Example 1, patients with a TSC diagnosis were administered a starting dose of 5 mg/kg/day CBD in addition to their baseline anti-epileptic drug (AED) regimen or placebo.
The daily dose was increased by 5 mg/kg increments until intolerance occurred or a maximum dose of 25 mg/kg/day was achieved. The starting dose increase from 5 mg/kg/day to 10 mg/kg/day occurred 7 days after administration of the first dose of CBD. […] The titration period occurred over two weeks. For patients in need of further seizure reduction, the dosage of 20 mg/kg/day was increased up to 25 mg/kg/day after one week.
All patients were taking at least two concomitant anti-epileptic drugs. These included clobazam; levetiracetam; topiramate; stiripentol; phenobarbital; lacsamide; valproic acid; zonisamide. The average number of concomitant antiepileptic drugs being taken was 2.7. The majority took either clobazam and/or valproic acid.
Prior to treatment with CBD, patients recorded the number of seizures they experienced. This established the baseline levels. During the course of treatment, patients recorded the number of seizures experienced each day.

For `C=C(C)[C@@H]1CCC(C)=C[C@H]1c1c(O)cc(CCCCC)cc1O` [CBD Extract, Cannabidiol], the “mean total seizures over time” value is “starts decreasing during the titration period”.

Values taken from US20240016819A1, “CANNABINOIDS FOR USE IN THE TREATMENT OF EPILEPSY” (GW RESEARCH LIMITED, priority 2020, published 2024).
